What was measured:
[1] = Appetite suppression: high fat food consumption in fasted rats (4-Hour and 24-Hour Consumption); assay type: in vivo, Sprague-Dawley rats
Text: Appetite Suppression: Three-month-old (300-350 grams) male, Sprague-Dawley rats (individually housed) were used to assess compounds for their appetite suppressant effects. Rats were acclimatized to a “high fat” food diet (BioServ Diet #F3282 or Research Diets #12451) for two weeks prior to testing (access to food and water ad libitum). One day prior to the experiment (at 5:00 PM), food was removed from the cages in order to motivate feeding when the food was returned the following morning (water remained available throughout the experiment). Prior to presentation of the food, rats (n=8-10/dose group) were dosed intraperitoneally (ip) or orally (po) with the compound under investigation, returned to their home cage and immediately given a pre-weighed amount of food. Four hours after administration, the food was removed from the cage, weighed, recorded (4-Hour Consumption) and returned to the rat until the following morning. Twenty-four hours after administration, the remaining food was again weighed and recorded (24-Hour Consumption). Cumulative consumption (expressed in grams) was calculated for both the four and the twenty-four hour intervals. In this assay, vehicle-treated rats typically consume approximately 8 grams over the four-hour interval and approximately 25 grams over the twenty-four-hour interval.
Treatment effects are presented in Table 1 and FIGS. 1-5 (4-Hour Consumption) and Table 2 and FIGS. 6-10 (24-Hour Consumption). The effects are given as both Raw Consumption (in grams ±SEM [1 standard error of the mean]) and as % Reduction in 4-Hour or 24-Hour Consumption=[1-(Consumption following Drug Treatment/Consumption following Vehicle Treatment)]×100%. Similar superscripts in the Dose column of Tables 1 and 2 denote values derived from the same experiment (to facilitate comparisons between individual treatments and co-administrations). Statistical analyses were performed using a 1-way ANOVA (analysis of variance) followed by a Bonferroni multiple comparison test with the overall alpha set at 0.05. In Tables 1 and 2, asterisks (*) denote significant effects compared to vehicle-treated rats, while letters (a or b) denote significant effects compared to rats treated with a single compound (“a” for significance from antidepressant and “b” for significance from telenzepine). In Tables 1 and 2, one symbol denotes p<0.05, two symbols denote p<0.01 and three symbols denote p<0.001). The symbols used for denoting statistical significance may be different in the corresponding figures.

[2] = directly injected into the midbrain; cited from earlier work
[3] = Reduction in weight gain of rats on a high fat diet (two-week treatment); assay type: in vivo, Sprague-Dawley rats; conditions: for % Reduction: treatment minus vehicle % weight gain
Description: Reduction in Weight Gain: Three- to four-month-old (475-550 grams) male, Sprague-Dawley rats (individually housed) were used to assess compounds for their ability to prevent weight gain. At the onset of chronic experiments, rats had been maintained (ad libitum access) on a “high fat” diet (BioServ Diet #F3282 or Research Diets #12451) for approximately one month. Individual body weights and water consumptions were recorded three times per week throughout the duration of the experiment. After approximately two weeks of data collection, rats were counter-balanced to produce treatment groups with equivalent mean body weights. Under isofluorane-induced anesthesia, rats were surgically implanted (subscapular, subcutaneous [sc] placement) with osmotic mini-pumps (Alzet 2mL2) containing the appropriate drug concentration (based on mean body weights and calculated durations of delivery). Alternatively, for studies using the oral route of administration, rats were dosed by gavage daily over 14 days at a volume of 3 mL/kg. Data collection was continued under drug treatment for approximately two more weeks. Change in body weight (expressed in grams) was calculated for the treatment interval. In this assay, vehicle-treated rats typically gain approximately 35-40 grams (+9%) over the two-week interval. Treatment effects are presented in Table 3 as % Weight Gain=[(Body Weight at End of Drug Infusion−Baseline Body Weight)/Baseline Body Weight]×100%, for both Vehicle and Treatment groups; as well as % Reduction=(% Weight Gain for Treatment group−% Weight Gain for Vehicle group). Body weights throughout the treatment period are presented in FIGS. 11-15 as the percentage of baseline body weight. Similar superscripts in the Dose column of Table 3 denote values derived from the same experiment (to facilitate comparisons between individual treatments and co-administrations). Statistical analyses were performed using a 1-way ANOVA (analysis of variance) followed by a Bonferroni multiple comparison test with the overall alpha set at 0.05. In Table 3, asterisks (*) denote significant effects compared to vehicle-treated rats, while letters (a or b) denote significant effects compared to rats treated with a single compound (“a” for significance from antidepressant and “b” for significance from telenzepine). In Table 3, one symbol denotes p<0.05, two symbols denote p<0.01 and three symbols denote p<0.001). The symbols used for denoting statistical significance may be different in the corresponding figures.

[4] = 24 h, 10 mg/kg ip, experiment e
[5] = 24 h, 10 mg/kg po, experiment c
[6] = 24 h, 30 mg/kg po, experiment c

SMILES: Cc1scc2c1N(C(=O)CN1CCN(C)CC1)c1ccccc1NC2=O [Telenzepine, 4,9-Dihydro-3-methyl-4-[(4-methyl-1-piperazinyl)acetyl]-10H-thieno[3,4-b][1,5]benzodiazepin-10-one]
- % Reduction in Consumption ([1]; 4 h, 1 mg/kg ip, experiment b): 43%
- Treatment Consumption ([1]; 4 h, 1 mg/kg ip, experiment b): 4.0 ± 0.50 g/4 Hrs
- % Reduction in Consumption ([1]; 4 h, 1 mg/kg ip, experiment e): 38%
- Treatment Consumption ([1]; 4 h, 1 mg/kg ip, experiment e): 5.7 ± 0.63 g/4 Hrs
- Treatment Consumption ([1]; 4 h, 3 mg/kg ip, experiment a): 4.2 ± 0.36 g/4 Hrs
- % Reduction in Consumption ([1]; 4 h, 3 mg/kg ip, experiment a, 3 mg/kg): 45%
- % Reduction in Consumption ([1]; 4 h, 3 mg/kg ip, experiment a, listed as telenzepine, 3 mg/kg): 45%
- Treatment Consumption ([1]; 4 h, 3 mg/kg ip, experiment b): 4.5 ± 0.40 g/4 Hrs
- % Reduction in Consumption ([1]; 4 h, 3 mg/kg ip, experiment b, 3 mg/kg): 35%
- % Reduction in Consumption ([1]; 4 h, 3 mg/kg ip, experiment b, listed as telenzepine, 3 mg/kg): 35%
- % Reduction in Consumption ([1]; 4 h, 3 mg/kg ip, experiment e): 40%
- Treatment Consumption ([1]; 4 h, 3 mg/kg ip, experiment e): 5.5 ± 0.60 g/4 Hrs
- % Reduction in Consumption ([1]; 4 h, 10 mg/kg ip, experiment e): 56%
- Treatment Consumption ([1]; 4 h, 10 mg/kg ip, experiment e): 4.1 ± 0.55 g/4 Hrs
- % Reduction in Consumption ([1]; 4 h, 10 mg/kg po, experiment c): 28%
- Treatment Consumption ([1]; 4 h, 10 mg/kg po, experiment c): 7.4 ± 0.64 g/4 Hrs
- % Reduction in Consumption ([1]; 4 h, 30 mg/kg po, experiment c): 36%
- Treatment Consumption ([1]; 4 h, 30 mg/kg po, experiment c): 6.6 ± 1.01 g/4 Hrs
- % Reduction in Consumption ([1]; 24 h, 1 mg/kg ip, experiment b): 16%
- Treatment Consumption ([1]; 24 h, 1 mg/kg ip, experiment b): 20.9 ± 0.78 g/24 Hrs
- % Reduction in Consumption ([1]; 24 h, 1 mg/kg ip, experiment e): 18%
- Treatment Consumption ([1]; 24 h, 1 mg/kg ip, experiment e): 23.6 ± 1.01 g/24 Hrs
- Treatment Consumption ([1]; 24 h, 3 mg/kg ip, experiment a): 17.5 ± 1.38 g/24 Hrs
- % Reduction in Consumption ([1]; 24 h, 3 mg/kg ip, experiment a, 3 mg/kg): 27%
- % Reduction in Consumption ([1]; 24 h, 3 mg/kg ip, experiment a, listed as telenzepine, 3 mg/kg): 27%
- Treatment Consumption ([1]; 24 h, 3 mg/kg ip, experiment b): 19.4 ± 0.94 g/24 Hrs
- % Reduction in Consumption ([1]; 24 h, 3 mg/kg ip, experiment b, 3 mg/kg): 22%
- % Reduction in Consumption ([1]; 24 h, 3 mg/kg ip, experiment b, listed as telenzepine, 3 mg/kg): 22%
- % Reduction in Consumption ([1]; 24 h, 3 mg/kg ip, experiment e): 32%
- Treatment Consumption ([1]; 24 h, 3 mg/kg ip, experiment e): 19.7 ± 0.95 g/24 Hrs
- % Reduction in Consumption [1, 4]: 50%
- Treatment Consumption [1, 4]: 14.5 ± 1.29 g/24 Hrs
- % Reduction in Consumption [1, 5]: 39%
- Treatment Consumption [1, 5]: 18.5 ± 2.33 g/24 Hrs
- % Reduction in Consumption [1, 6]: 56%
- Treatment Consumption [1, 6]: 13.3 ± 2.69 g/24 Hrs
- effect on consumption ([1]; all doses tested (ip), given alone): significantly reduced consumption
- GABA efflux [2]: reduced GABA efflux
- Treatment: % Weight Gain ([3]; 0.3 mg/kg sc, experiment c): 4.4 ± 0.6%
- % Reduction ([3]; 0.3 mg/kg sc, experiment c): −0.9%
- Treatment: % Weight Gain ([3]; 1 mg/kg po, experiment d): 3.3 ± 0.6%
- % Reduction ([3]; 1 mg/kg po, experiment d): −3.1%
- reduction in body weight compared to vehicle treated rats ([3]; 3 mg/kg of telenzepine alone): 3.8%
- Treatment: % Weight Gain ([3]; 3 mg/kg sc, experiment a): 1.5 ± 1.0%
- % Reduction ([3]; 3 mg/kg sc, experiment a): −7.1%
- Treatment: % Weight Gain ([3]; 3 mg/kg sc, experiment b): 4.3 ± 0.8%
- % Reduction ([3]; 3 mg/kg sc, experiment b): −3.8%

Reference: patent US8748419B2, “Treating obesity with muscarinic receptor M1 antagonists” (priority 2006, dated 2014)
